Reference: US20250177353A1 (priority 2021, published 2025)
Read-outs that look alike come from different tables or passages of the source.

What was measured:
[1] = SAD phase I study: plasma pharmacokinetics of 2,4-dinitrophenol after Compound 1 (Table 3); type: in vivo, human; settings: for Vd/F: 500 mg, read-out: Vz/F, Median
Description: A double-blind, placebo-controlled, phase I study of the safety and pharmacokinetics of single ascending doses of compound 1 in healthy volunteers was conducted. The volunteers were orally administered Compound 1 in doses ranging from 30 mg once daily (QD) to 1400 mg QD in a total of 67 subjects (50 active/17 placebo) across 8 cohorts.
Screening procedures occurred on Days -28 to -3. For all Cohorts except Cohort 4 (Fed/Fasted), subjects were admitted to the clinical research unit for up to 4 days. […] Following completion of all safety assessments and blood draws for PK analyses, subjects were discharged on Day 3. The Fed/Fasted cohort remained in the unit and were discharged on Day 7.
Double-blind dosing occurred in cohorts 1 through 8. In these cohorts, six subjects received Compound 1 and two received matching placebo. Doses escalated in the following sequence: 30, 100, 200, 500, 1400, 1050 and 600 mg. • Cohort 4 crossed-over to a fed state (50% fat meal) administration after pharmacokinetics and an inpatient washout had occurred for 72 hours after the first dose with a final dose.
Subjects were admitted to the clinical research unit on Day 1. […] Blood draws for assessment of PK parameters occurred per schedule of assessments. IC were taken per schedule of assessments. Subjects were released on Day 3 following completion of all blood draws and safety assessments. The Fed/Fasted cohort remained in the unit and was discharged on Day 7.
Compound 1 or matching placebo was administered orally as a single dose. All subjects except the fed cohort, were dosed in the morning after an 8-hour fast and remained in a semi-reclined position for 1 hour and fasting for 4 hours post-administration. Capsules were swallowed with 240 mL (8 fluid ounces) of room temperature water.
Cohort 4 was a crossover food effect analysis. Subjects enrolled in Cohort 4 were dosed 30 minutes following the beginning of a standardized (consisting of 50% fat) meal (following a 10-hour fast) to evaluate for food effects. The study drug was administered with room temperature 240 mL (8 fluid ounces) of water.

[2] = MAD study: 2,4-dinitrophenol pharmacokinetics (accumulation, steady state); type: in vivo, human; settings: MAD cohort 1
Description: A double-blind, sponsor-open, placebo-controlled, phase I study of the safety, pharmacokinetics and pharmacodynamics of multiple ascending doses of Compound 1 in high MBI volunteers was conducted. The first cohort of 10 healthy high body mass index (BMI) subjects has completed dosing at 200 mg Compound 1. Two more cohorts are also planned at doses of 400 and 550 mg QD.
With once daily dosing, significant accumulation of 2,4-dinitrophenol is anticipated at steady state.

[3] = human, in vivo, 500 mg
[4] = cited from earlier work
[5] = single dose 30 mg Compound 1, Fasted
[6] = single dose 100 mg Compound 1, Fasted
[7] = single dose 200 mg Compound 1, Fasted
[8] = single dose 500 mg Compound 1, Fasted
[9] = single dose 500 mg Compound 1, Fed
[10] = single dose 600 mg Compound 1, Fasted, Micronized
[11] = single dose 1050 mg Compound 1, Fasted
[12] = single dose 1050 mg Compound 1, Fasted, Micronized
[13] = single dose 1400 mg Compound 1, Fasted, Micronized

Compound: O=[N+]([O-])c1ccc(O)c([N+](=O)[O-])c1 [2,4-dinitrophenol]
- Vd/F ([1]; human, oral, single dose 500 mg Compound 1, Fasted): 735 L
- Vd/F ([1]; human, oral, single dose 500 mg Compound 1, Fed): 269 L
- AUC(0-inf) ([1]; human, oral, single dose 500 mg Compound 1, Fed, read-out: AUCinf, Median): 83800 ng·h/mL
- half-life ([1]; human, oral, single dose 500 mg Compound 1, Fed, read-out: t1/2, Median (converted)): 31.2 h
- AUC0/24 h, Geometric Mean [1, 5]: 1440 ng·h/mL
- AUC0/24 h, Mean (SD) [1, 5]: 1500 (448) h*ng/ML
- AUC0/24 h, Median [1, 5]: 1500 ng·h/mL
- CL/F, Geometric Mean [1, 5]: 7.44 L/h
- CL/F, Mean (SD) [1, 5]: 8.04 (3.39) L/h
- CL/F, Median [1, 5]: 9.84 L/h
- AUC0/24 h, Geometric Mean [1, 6]: 4660 ng·h/mL
- AUC0/24 h, Mean (SD) [1, 6]: 4710 (711) h*ng/ML
- AUC0/24 h, Median [1, 6]: 4820 ng·h/mL
- CL/F, Geometric Mean [1, 6]: 7.61 L/h
- CL/F, Mean (SD) [1, 6]: 7.75 (1.70) L/h
- CL/F, Median [1, 6]: 7.87 L/h
- AUC0/24 h, Geometric Mean [1, 7]: 11100 ng·h/mL
- AUC0/24 h, Mean (SD) [1, 7]: 11200 (1970) h*ng/ML
- AUC0/24 h, Median [1, 7]: 10900 ng·h/mL
- CL/F, Geometric Mean [1, 7]: 6.12 L/h
- CL/F, Mean (SD) [1, 7]: 6.35 (1.79) L/h
- CL/F, Median [1, 7]: 7.19 L/h
- AUC%extrap, Median [1, 8]: 12.2%
- AUCinf/D, Median [1, 8]: 62.4 ng·h/mL/mg
- CL/F, Geometric Mean [1, 8]: 16.5 L/h
- CL/F, Mean (SD) [1, 8]: 17.7 (7.65) L/h
- CL/F, Median [1, 8]: 16.4 L/h
- AUC%extrap, Median [1, 9]: 6.56%
- AUCinf/D, Median [1, 9]: 168 ng·h/mL/mg
- CL/F, Median [1, 9]: 5.97 L/h
- λz, Median [1, 9]: 0.0222 h⁻¹
- CL/F, Geometric Mean [1, 10]: 2.80 L/h
- CL/F, Mean (SD) [1, 10]: 3.20 (1.62) L/h
- CL/F, Median [1, 10]: 2.74 L/h
- CL/F, Geometric Mean [1, 11]: 15.2 L/h
- CL/F, Mean (SD) [1, 11]: 16.8 (7.60) L/h
- CL/F, Median [1, 11]: 18.3 L/h
- CL/F, Geometric Mean [1, 12]: 2.20 L/h
- CL/F, Mean (SD) [1, 12]: 2.33 (0.715) L/h
- CL/F, Median [1, 12]: 2.50 L/h
- CL/F, Geometric Mean [1, 13]: 3.96 L/h
- CL/F, Mean (SD) [1, 13]: 4.12 (1.43) L/h
- CL/F, Median [1, 13]: 3.60 L/h
- dose accumulation factor ([2]; Compound 1 200 mg QD for 14 days): approximately 3.5 fold
- time to steady-state ([2]; Compound 1 200 mg daily dosing): 7 days
- AUC increase under fed conditions relative to fasted conditions [3]: > 2.0 fold
- Cmax increase under fed conditions relative to fasted conditions [3]: > 1.8 fold
- increase in RMR ([4]; 2,4-dinitrophenol once daily 1-3 months (Tainter, Simkins)): 20-40%
- weight loss ([4]; 2,4-dinitrophenol once daily 1-3 months): 1.4-2.1 lbs./week
- tolerability ([4]; 2,4-dinitrophenol once daily over 1-3 months): well tolerated
- 2,4-dinitrophenol concentrations associated with adverse increases in body temperatures ([4]; humans (Zhao 2015)): greater than 28,000 ng/ml
